How the values were obtained:
Assay in all cases: biochemical
Parameters in all cases: Eurofins recombinant human kinase profiling, remaining kinase activity as % of control, 10 uM ATP
Conditions in all cases: ATP 10 uM; read-out: %Ctrl@10 μM
STK33(h) = STK33(h) (Homo sapiens, UniProt Q9BYT3)
Summary of the method: (§1)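 Recombinant human kinases, 401 in total, screened using an outsourced kinase profiling assay.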

IKKα(h) = target: T1, IKKα(h) (Homo sapiens, UniProt O15111)
T1 construct: gene CHUK
T1 sequence (O15111 whole entry): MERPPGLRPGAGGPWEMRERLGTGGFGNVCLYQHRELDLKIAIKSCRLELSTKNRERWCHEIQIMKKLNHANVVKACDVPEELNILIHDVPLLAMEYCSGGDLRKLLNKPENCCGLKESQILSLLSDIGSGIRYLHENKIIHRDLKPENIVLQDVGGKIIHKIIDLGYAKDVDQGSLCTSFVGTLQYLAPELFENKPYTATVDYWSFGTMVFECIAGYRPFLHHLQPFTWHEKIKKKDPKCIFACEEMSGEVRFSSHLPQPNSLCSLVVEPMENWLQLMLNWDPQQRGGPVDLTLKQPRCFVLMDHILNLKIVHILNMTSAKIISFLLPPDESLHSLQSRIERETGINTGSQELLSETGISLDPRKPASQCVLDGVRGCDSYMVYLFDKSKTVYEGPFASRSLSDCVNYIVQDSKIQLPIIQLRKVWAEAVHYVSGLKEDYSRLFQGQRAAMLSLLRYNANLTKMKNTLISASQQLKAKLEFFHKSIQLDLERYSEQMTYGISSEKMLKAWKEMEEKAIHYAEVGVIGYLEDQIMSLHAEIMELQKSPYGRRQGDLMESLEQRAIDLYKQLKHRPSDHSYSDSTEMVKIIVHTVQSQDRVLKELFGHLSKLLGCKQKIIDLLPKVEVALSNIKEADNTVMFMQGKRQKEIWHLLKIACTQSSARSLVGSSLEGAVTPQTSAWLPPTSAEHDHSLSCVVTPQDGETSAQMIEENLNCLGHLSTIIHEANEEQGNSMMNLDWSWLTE
Summary of the method: as §1

Fgr(h) = Fgr(h) (Homo sapiens, UniProt P09769)
Summary of the method: as §1

AAK1(h) = AAK1(h) (Homo sapiens, UniProt Q2M2I8)
Summary of the method: as §1

CDKL2(h) = CDKL2(h) (Homo sapiens, UniProt Q92772)
Summary of the method: as §1

FGFR1(V561M)(h) = FGFR1(V561M)(h) (Homo sapiens, UniProt P11362, V561M)
Summary of the method: as §1

DYRK1B(h) = DYRK1B(h) (Homo sapiens, UniProt Q9Y463)
Summary of the method: as §1

MRCKγ(h) = target: T2, MRCKγ(h) (Homo sapiens, UniProt Q6DT37)
T2 construct: gene CDC42BPG
Summary of the method: as §1

B-Raf(h) = target: T3, B-Raf(h) (Homo sapiens, UniProt P15056)
T3 construct: gene BRAF
Summary of the method: as §1

Fyn(h) = Fyn(h) (Homo sapiens, UniProt P06241)
Summary of the method: as §1

CK2α1(h) = target: T4, CK2α1(h) (Homo sapiens, UniProt P68400)
T4 construct: gene CSNK2A1
Summary of the method: as §1

TAF1L(h) = TAF1L(h) (Homo sapiens, UniProt Q8IZX4)
Sequence of TAF1L(h) (Q8IZX4 whole entry): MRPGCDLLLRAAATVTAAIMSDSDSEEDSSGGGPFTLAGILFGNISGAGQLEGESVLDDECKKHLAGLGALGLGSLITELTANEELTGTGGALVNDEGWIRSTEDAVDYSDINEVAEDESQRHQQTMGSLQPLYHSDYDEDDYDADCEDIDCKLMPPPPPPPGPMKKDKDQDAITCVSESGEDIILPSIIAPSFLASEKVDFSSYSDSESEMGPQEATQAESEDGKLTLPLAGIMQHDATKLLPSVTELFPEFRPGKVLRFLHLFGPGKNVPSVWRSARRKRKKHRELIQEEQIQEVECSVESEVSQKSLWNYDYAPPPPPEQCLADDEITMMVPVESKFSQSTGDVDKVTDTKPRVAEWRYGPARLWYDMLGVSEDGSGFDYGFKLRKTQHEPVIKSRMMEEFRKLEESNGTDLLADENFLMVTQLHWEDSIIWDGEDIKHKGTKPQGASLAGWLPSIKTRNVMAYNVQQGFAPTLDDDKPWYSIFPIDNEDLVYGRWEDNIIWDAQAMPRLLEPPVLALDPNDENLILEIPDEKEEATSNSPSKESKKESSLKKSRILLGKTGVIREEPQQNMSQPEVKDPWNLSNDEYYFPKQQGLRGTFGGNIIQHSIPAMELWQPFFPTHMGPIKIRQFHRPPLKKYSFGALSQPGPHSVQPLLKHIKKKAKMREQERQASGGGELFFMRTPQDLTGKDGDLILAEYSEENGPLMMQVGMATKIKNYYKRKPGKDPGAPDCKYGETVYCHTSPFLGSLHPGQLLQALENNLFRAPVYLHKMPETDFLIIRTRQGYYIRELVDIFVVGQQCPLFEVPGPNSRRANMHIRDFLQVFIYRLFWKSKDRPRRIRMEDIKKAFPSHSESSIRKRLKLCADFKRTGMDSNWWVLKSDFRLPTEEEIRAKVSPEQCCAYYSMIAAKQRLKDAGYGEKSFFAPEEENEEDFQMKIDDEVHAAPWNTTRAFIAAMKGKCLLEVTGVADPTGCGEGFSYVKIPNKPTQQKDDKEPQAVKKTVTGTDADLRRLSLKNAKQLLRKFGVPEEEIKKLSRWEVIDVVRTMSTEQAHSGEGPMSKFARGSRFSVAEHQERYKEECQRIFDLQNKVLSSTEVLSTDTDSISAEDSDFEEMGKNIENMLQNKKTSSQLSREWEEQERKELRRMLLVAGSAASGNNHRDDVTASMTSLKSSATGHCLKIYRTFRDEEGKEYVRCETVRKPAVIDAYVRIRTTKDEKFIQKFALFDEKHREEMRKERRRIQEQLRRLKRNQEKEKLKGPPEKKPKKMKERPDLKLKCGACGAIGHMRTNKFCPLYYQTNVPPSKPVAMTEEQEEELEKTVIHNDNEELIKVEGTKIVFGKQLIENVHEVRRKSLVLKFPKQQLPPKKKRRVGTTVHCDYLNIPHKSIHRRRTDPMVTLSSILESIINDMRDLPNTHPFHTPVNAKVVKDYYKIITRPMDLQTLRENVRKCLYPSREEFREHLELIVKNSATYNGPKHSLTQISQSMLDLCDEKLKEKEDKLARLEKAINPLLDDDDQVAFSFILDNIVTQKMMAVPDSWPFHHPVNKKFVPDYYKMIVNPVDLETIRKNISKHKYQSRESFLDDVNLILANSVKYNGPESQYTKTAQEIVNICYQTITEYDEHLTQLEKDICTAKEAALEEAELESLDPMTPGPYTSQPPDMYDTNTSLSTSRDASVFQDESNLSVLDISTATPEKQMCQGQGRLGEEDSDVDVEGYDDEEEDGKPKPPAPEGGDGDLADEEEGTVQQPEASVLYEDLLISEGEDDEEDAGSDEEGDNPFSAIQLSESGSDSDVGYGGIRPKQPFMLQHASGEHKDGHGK
Summary of the method: as §1

CaMKIδ(h) = target: T5, CaMKIδ(h) (Homo sapiens, UniProt Q8IU85)
T5 construct: gene CAMK1D
Summary of the method: as §1

PKCγ(h) = target: T6, PKCγ(h) (Homo sapiens, UniProt P05129)
T6 construct: gene PRKCG
Summary of the method: as §1

LTK(h) = LTK(h) (Homo sapiens, UniProt P29376)
Summary of the method: as §1

MKK3(h) = target: T7, MKK3(h) (Homo sapiens, UniProt P46734)
T7 construct: gene MAP2K3
T7 sequence (P46734 whole entry): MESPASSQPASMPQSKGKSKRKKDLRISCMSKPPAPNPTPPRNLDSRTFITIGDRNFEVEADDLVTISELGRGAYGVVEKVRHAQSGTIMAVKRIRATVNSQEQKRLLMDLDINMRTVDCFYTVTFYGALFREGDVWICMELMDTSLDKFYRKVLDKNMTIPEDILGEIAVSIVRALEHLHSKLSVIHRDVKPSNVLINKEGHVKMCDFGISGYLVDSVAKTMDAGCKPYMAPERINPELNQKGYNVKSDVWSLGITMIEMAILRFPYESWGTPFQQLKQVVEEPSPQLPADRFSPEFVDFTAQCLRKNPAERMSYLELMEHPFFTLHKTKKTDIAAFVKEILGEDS
Summary of the method: as §1

Fes(h) = Fes(h) (Homo sapiens, UniProt P07332)
Summary of the method: as §1

Ros(h) = target: T8, Ros(h) (Homo sapiens, UniProt P08922)
T8 construct: gene ROS1
Summary of the method: as §1

CK1γ1(h) = target: T9, CK1γ1(h) (Homo sapiens, UniProt Q9HCP0)
T9 construct: gene CSNK1G1
Summary of the method: as §1

[1] = target: T10, PI3 Kinase (p110(E542K)/p85)(h) (Homo sapiens, UniProt P42336, E542K)
T10 construct: gene PIK3CA
Summary of the method: as §1

BrSK1(h) = BrSK1(h) (Homo sapiens, UniProt Q8TDC3)
Summary of the method: as §1

PAK4(h) = PAK4(h) (Homo sapiens, UniProt O96013)
Sequence of PAK4(h) (O96013 whole entry): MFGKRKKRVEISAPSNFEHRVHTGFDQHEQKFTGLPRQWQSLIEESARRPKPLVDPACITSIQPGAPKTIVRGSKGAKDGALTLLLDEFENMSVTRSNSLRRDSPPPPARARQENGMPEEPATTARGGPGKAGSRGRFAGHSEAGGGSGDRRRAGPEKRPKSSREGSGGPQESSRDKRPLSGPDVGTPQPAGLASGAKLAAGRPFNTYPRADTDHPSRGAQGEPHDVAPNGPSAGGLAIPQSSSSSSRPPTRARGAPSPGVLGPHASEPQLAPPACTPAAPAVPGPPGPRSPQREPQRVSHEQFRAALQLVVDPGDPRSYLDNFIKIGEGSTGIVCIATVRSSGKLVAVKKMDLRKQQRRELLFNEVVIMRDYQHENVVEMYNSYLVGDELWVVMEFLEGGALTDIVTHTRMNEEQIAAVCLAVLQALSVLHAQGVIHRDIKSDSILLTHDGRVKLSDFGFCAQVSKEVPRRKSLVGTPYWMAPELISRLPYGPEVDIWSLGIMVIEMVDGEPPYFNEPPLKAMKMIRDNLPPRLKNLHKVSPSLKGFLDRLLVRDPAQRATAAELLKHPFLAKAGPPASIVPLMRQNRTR
Summary of the method: as §1

EphA7(h) = EphA7(h) (Homo sapiens, UniProt Q15375)
Sequence of EphA7(h) (Q15375 whole entry): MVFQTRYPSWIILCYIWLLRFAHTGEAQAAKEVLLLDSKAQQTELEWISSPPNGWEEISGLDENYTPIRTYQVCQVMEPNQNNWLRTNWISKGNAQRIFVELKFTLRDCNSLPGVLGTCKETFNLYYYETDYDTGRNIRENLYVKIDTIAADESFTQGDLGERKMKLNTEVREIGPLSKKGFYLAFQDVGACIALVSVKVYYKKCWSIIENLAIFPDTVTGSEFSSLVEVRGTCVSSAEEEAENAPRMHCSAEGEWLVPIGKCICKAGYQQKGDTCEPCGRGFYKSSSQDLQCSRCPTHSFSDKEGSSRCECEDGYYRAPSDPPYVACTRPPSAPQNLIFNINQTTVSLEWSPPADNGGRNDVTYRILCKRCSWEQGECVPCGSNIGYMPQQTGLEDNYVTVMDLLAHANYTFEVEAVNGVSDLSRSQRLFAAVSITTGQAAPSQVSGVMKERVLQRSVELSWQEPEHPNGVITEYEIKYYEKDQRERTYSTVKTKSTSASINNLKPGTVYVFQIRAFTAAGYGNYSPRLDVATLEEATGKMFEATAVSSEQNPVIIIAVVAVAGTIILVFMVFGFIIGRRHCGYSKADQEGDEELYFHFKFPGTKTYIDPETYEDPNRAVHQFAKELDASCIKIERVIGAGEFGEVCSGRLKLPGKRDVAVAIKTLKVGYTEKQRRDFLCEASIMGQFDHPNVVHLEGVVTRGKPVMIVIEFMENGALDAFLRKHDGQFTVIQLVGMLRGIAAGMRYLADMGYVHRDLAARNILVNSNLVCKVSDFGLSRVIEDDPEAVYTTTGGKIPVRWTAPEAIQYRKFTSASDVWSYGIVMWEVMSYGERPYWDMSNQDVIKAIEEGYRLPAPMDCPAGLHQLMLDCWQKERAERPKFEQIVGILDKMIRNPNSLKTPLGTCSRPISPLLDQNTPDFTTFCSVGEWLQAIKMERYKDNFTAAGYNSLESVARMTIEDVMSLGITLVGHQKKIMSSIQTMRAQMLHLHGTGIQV
Summary of the method: as §1

Sequence of STK33(h) (Q9BYT3 whole entry): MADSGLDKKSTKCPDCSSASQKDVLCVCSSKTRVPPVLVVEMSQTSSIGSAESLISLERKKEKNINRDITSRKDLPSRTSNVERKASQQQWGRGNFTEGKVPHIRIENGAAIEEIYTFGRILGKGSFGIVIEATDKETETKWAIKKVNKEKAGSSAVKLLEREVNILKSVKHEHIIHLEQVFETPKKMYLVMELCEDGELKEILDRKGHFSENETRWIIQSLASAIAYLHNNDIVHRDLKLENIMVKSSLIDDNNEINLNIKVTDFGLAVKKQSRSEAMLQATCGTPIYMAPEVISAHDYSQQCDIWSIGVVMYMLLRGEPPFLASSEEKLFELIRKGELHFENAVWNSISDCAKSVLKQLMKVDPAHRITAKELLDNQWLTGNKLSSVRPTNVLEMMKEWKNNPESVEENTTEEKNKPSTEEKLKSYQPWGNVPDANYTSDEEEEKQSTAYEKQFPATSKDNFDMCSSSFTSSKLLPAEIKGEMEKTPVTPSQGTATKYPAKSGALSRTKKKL

SMILES: C1=C(c2nc(-c3cnn(C4CCNCC4)c3)cn3cc(-c4ccccc4)nc23)CCOC1 [YL-939]
- remaining activity at 10 µM (STK33(h)): 105%
- remaining activity at 10 µM (IKKα(h)): 92%
- remaining activity at 10 µM (Fgr(h)): 76%
- remaining activity at 10 µM (AAK1(h)): 68%
- remaining activity at 10 µM (CDKL2(h)): 74%
- remaining activity at 10 µM (FGFR1(V561M)(h)): 65%
- remaining activity at 10 µM (DYRK1B(h)): 97%
- remaining activity at 10 µM (MRCKγ(h)): 95%
- remaining activity at 10 µM (B-Raf(h)): 84%
- remaining activity at 10 µM (Fyn(h)): 81%
- remaining activity at 10 µM (CK2α1(h)): 103%
- remaining activity at 10 µM (TAF1L(h)): 84%
- remaining activity at 10 µM (CaMKIδ(h)): 90%
- remaining activity at 10 µM (PKCγ(h)): 96%
- remaining activity at 10 µM (LTK(h)): 108%
- remaining activity at 10 µM (MKK3(h)): 107%
- remaining activity at 10 µM (Fes(h)): 86%
- remaining activity at 10 µM (Ros(h)): 97%
- remaining activity at 10 µM (CK1γ1(h)): 112%
- remaining activity at 10 µM [1]: 99%
- remaining activity at 10 µM (BrSK1(h)): 91%
- remaining activity at 10 µM (PAK4(h)): 97%
- remaining activity at 10 µM (EphA7(h)): 99%

Reference: paper PMC9719519, “Non-classical ferroptosis inhibition by a small molecule targeting PHB2” (Nature Communications, 2022)
